According to the NIST ThermoML archive (doi:10.1016/j.jct.2016.06.034):
± gives the expanded uncertainty stated by the source.

Test: mn = molality of the nth substance listed, in mol/kg
Conditions: for electrical conductivity / speed of sound / mass density: 84.5 kPa, Liquid; for electrical conductivity: Alternating current cell with electrodes; for speed of sound: Frequency=3 MHz, Sing-around technique in a fixed-path interferometer; for mass density: Vibrating tube method; for surface tension liquid-gas: platinum plate method

CCCCCCCCCCn1cc[n+](C)c1.[Br-] [1-decyl-3-methylimidazolium bromide] + O
Conditions | electrical conductivity [S/m] | mass density [kg/m3] | speed of sound [m/s] | surface tension liquid-gas [mN/m]
288.15 K, m1 = 1e-05 | 0.000112 | – | – | –
288.15 K, m1 = 2e-05 | 0.000223 | – | – | –
288.15 K, m1 = 4e-05 | 0.000329 | – | – | –
288.15 K, m1 = 5e-05 | 0.000442 | – | – | –
288.15 K, m1 = 8e-05 | 0.000678 | – | – | –
288.15 K, m1 = 0.00012 | 0.00103 | – | – | –
288.15 K, m1 = 0.00018 | 0.00151 | – | – | –
288.15 K, m1 = 0.00026 | 0.00212 ± 0.0035 | – | – | –
288.15 K, m1 = 0.00033 | 0.00273 ± 0.0034 | – | – | –
288.15 K, m1 = 0.00044 | 0.00357 ± 0.0034 | – | – | –
288.15 K, m1 = 0.00056 | 0.00455 ± 0.0035 | – | – | –
288.15 K, m1 = 0.00075 | 0.006 ± 0.0034 | – | – | –
288.15 K, m1 = 0.00098 | 0.00777 ± 0.0034 | – | – | –
288.15 K, m1 = 0.00127 | 0.01 ± 0.0034 | – | – | –
288.15 K, m1 = 0.00152 | 0.0119 ± 0.0033 | – | – | –
288.15 K, m1 = 0.0021 | 0.0163 ± 0.0034 | – | – | –
288.15 K, m1 = 0.00279 | 0.0217 ± 0.0034 | – | – | –
288.15 K, m1 = 0.00349 | 0.027 ± 0.0033 | – | – | –
288.15 K, m1 = 0.00439 | 0.0336 ± 0.0032 | – | – | –
288.15 K, m1 = 0.00754 | 0.0559 ± 0.0031 | – | – | –
288.15 K, m1 = 0.0095 | – | 999.502 ± 0.11 | 1468.8 ± 1.2 | –
288.15 K, m1 = 0.01045 | 0.0758 ± 0.0031 | – | – | –
288.15 K, m1 = 0.01291 | 0.0921 ± 0.0031 | – | – | –
288.15 K, m1 = 0.01379 | – | 999.684 ± 0.11 | 1469.8 ± 1.2 | –
288.15 K, m1 = 0.01562 | 0.11 ± 0.0031 | – | – | –
288.15 K, m1 = 0.01652 | – | 999.799 ± 0.11 | 1470.4 ± 1.2 | –
288.15 K, m1 = 0.01821 | 0.126 ± 0.0032 | – | – | –
288.15 K, m1 = 0.0208 | 0.143 ± 0.0032 | – | – | –
288.15 K, m1 = 0.02179 | – | 1000.02 ± 0.11 | 1471.6 ± 1.2 | –
288.15 K, m1 = 0.02334 | 0.158 ± 0.0033 | – | – | –
288.15 K, m1 = 0.0258 | 0.173 ± 0.0034 | – | – | –
288.15 K, m1 = 0.02615 | – | 1000.2 ± 0.11 | 1472.5 ± 1.2 | –
288.15 K, m1 = 0.02825 | 0.188 ± 0.0034 | – | – | –
288.15 K, m1 = 0.03047 | 0.2 ± 0.0035 | – | – | –
288.15 K, m1 = 0.03106 | – | 1000.41 ± 0.11 | 1473.5 ± 1.2 | –
288.15 K, m1 = 0.03259 | 0.212 ± 0.0036 | – | – | –
288.15 K, m1 = 0.03338 | – | 1000.51 ± 0.11 | 1474 ± 1.2 | –
288.15 K, m1 = 0.03462 | 0.224 ± 0.0037 | – | – | –
288.15 K, m1 = 0.03662 | 0.236 ± 0.0037 | – | – | –
288.15 K, m1 = 0.03819 | – | 1000.71 ± 0.11 | 1475 ± 1.2 | –
288.15 K, m1 = 0.03965 | 0.252 ± 0.0038 | – | – | –
288.15 K, m1 = 0.0406 | – | 1000.81 ± 0.11 | 1475.3 ± 1.2 | –
288.15 K, m1 = 0.04174 | 0.262 ± 0.0038 | – | – | –
288.15 K, m1 = 0.04332 | – | 1000.92 ± 0.11 | 1475.6 ± 1.2 | –
288.15 K, m1 = 0.04366 | 0.27 ± 0.0037 | – | – | –
288.15 K, m1 = 0.04517 | 0.275 ± 0.0035 | – | – | –
288.15 K, m1 = 0.04614 | – | 1001.03 ± 0.11 | 1476 ± 1.2 | –
288.15 K, m1 = 0.04687 | 0.28 ± 0.0035 | – | – | –
288.15 K, m1 = 0.04895 | 0.285 ± 0.0036 | – | – | –
288.15 K, m1 = 0.05102 | 0.289 ± 0.0036 | – | – | –
288.15 K, m1 = 0.05341 | 0.294 ± 0.0037 | – | – | –
288.15 K, m1 = 0.05515 | – | 1001.35 ± 0.11 | 1476.4 ± 1.2 | –
288.15 K, m1 = 0.05563 | 0.298 ± 0.0037 | – | – | –
288.15 K, m1 = 0.05739 | 0.301 ± 0.0037 | – | – | –
288.15 K, m1 = 0.05949 | 0.306 ± 0.0038 | – | – | –
288.15 K, m1 = 0.06232 | 0.311 ± 0.0038 | – | – | –
288.15 K, m1 = 0.06396 | – | 1001.66 ± 0.11 | 1476.7 ± 1.2 | –
288.15 K, m1 = 0.07815 | – | 1002.15 ± 0.11 | 1477 ± 1.2 | –
288.15 K, m1 = 0.122 | – | 1003.65 ± 0.11 | 1477.9 ± 1.2 | –
288.15 K, m1 = 0.1726 | – | 1005.33 ± 0.11 | 1478.9 ± 1.2 | –
288.15 K, m1 = 0.2247 | – | 1007.03 ± 0.11 | 1480 ± 1.2 | –
288.15 K, m1 = 0.2539 | – | 1007.95 ± 0.11 | 1480.6 ± 1.2 | –
293.15 K, m1 = 1e-05 | 0.00016 | – | – | –
293.15 K, m1 = 3e-05 | 0.000289 | – | – | –
293.15 K, m1 = 6e-05 | 0.000554 | – | – | –
293.15 K, m1 = 7e-05 | 0.000686 | – | – | –
293.15 K, m1 = 9e-05 | 0.00082 | – | – | –
293.15 K, m1 = 0.0001 | 0.000947 | – | – | –
293.15 K, m1 = 0.00011 | 0.00106 | – | – | –
293.15 K, m1 = 0.00016 | 0.00146 | – | – | –
293.15 K, m1 = 0.00025 | 0.00231 ± 0.004 | – | – | –
293.15 K, m1 = 0.00047 | 0.00432 ± 0.0039 | – | – | –
293.15 K, m1 = 0.00077 | 0.00695 ± 0.0039 | – | – | –
293.15 K, m1 = 0.0015 | 0.0134 ± 0.0039 | – | – | –
293.15 K, m1 = 0.00805 | – | – | – | 56.25 ± 0.44
293.15 K, m1 = 0.01202 | – | – | – | 52.74 ± 0.42
293.15 K, m1 = 0.01627 | – | – | – | 49.46 ± 0.39
293.15 K, m1 = 0.02206 | – | – | – | 45.32 ± 0.36
293.15 K, m1 = 0.02718 | – | – | – | 42.2 ± 0.33
293.15 K, m1 = 0.03028 | – | – | – | 40.63 ± 0.29
293.15 K, m1 = 0.03568 | – | – | – | 38.17 ± 0.25
293.15 K, m1 = 0.03969 | – | – | – | 37.78 ± 0.21
293.15 K, m1 = 0.04205 | – | – | – | 37.64 ± 0.2
293.15 K, m1 = 0.04444 | – | – | – | 37.78 ± 0.21
293.15 K, m1 = 0.04581 | – | – | – | 37.96 ± 0.22
293.15 K, m1 = 0.04833 | – | – | – | 38.56 ± 0.23
293.15 K, m1 = 0.06141 | – | – | – | 39.32 ± 0.2
293.15 K, m1 = 0.0858 | – | – | – | 39.48 ± 0.21
293.15 K, m1 = 0.1481 | – | – | – | 39.36 ± 0.21
293.15 K, m1 = 0.1979 | – | – | – | 39.38 ± 0.21
